Assay results from patent publication US10986837B2, “Lactam solubility” (Conopco, Inc., priority 2015, dated 2021).
Each block holds one compound with its values, some of them ahead of it.

Assays:
[1] = Lactam solubility in bio-surfactant solutions (48 h agitation, filtration, HPLC); format: physicochemical
Protocol: Bio-surfactant solutions at the levels shown in the results below were prepared for screening. The maximum level tested was dictated by the solubility of the surfactant in water. The following representative example uses 4-(4-chlorophenyl)-5-methylene-pyrrol-2-one.
Solid lactam was weighed into Whatman® Mini Uniprep sample vials, fitted with a 0.45 μm nylon filter (2.7 to 3.3 mg per vial). 50 μL of a solvent solution was placed into each sample vial, the vial capped and shaken briefly by hand to agitate the solid, then placed on a Thermo Labsystems Wellmix® plate shaker and continuously agitated for 48 hours. After this time, the excess solid in the vial was removed using the integral filter membrane and the resultant solution analysed by HPLC to determine the level of dissolved lactam.
Samples were analysed using an Agilent 1200® series HPLC fitted with a Hypersil Gold C18 column (15×2.1×3 μm), using isocratic elution with 60/40 methanol/water (+0.1% Formic Acid) at a flow rate of 0.4 mL/min, using a DAD detector at 285 nm. 4-(4-Chlorophenyl)-5-methylene-pyrrol-2-one has a retention time of ˜2.8 minutes.
Each test surfactant solution was tested in triplicate and the mean value of lactam in solution calculated. Values of solubility were quoted as the improvement in aqueous solubility vs water alone (i.e. mean level of lactam dissolved in water+solvent/mean level of lactam dissolved in water) to allow comparison between screens conducted on different days.

[2] = produced by Rhodococcus erythropolis grown on n-alkane; cited from earlier work
[3] = Additive Di-rhamnolipid R2, 0% in water (water alone)
[4] = Additive Di-rhamnolipid R2, 0.1% in water
[5] = Additive Di-rhamnolipid R2, 0.5% in water
[6] = Additive Di-rhamnolipid R2, 1% in water
[7] = Additive Di-rhamnolipid R2, 2% in water
[8] = Additive Mono-rhamnolipid R1, 0% in water (water alone)
[9] = Additive Mono-rhamnolipid R1, 0.1% in water
[10] = Additive Mono-rhamnolipid R1, 0.5% in water
[11] = Additive Mono-rhamnolipid R1, 1% in water
[12] = Additive Mono-rhamnolipid R1, 2% in water
[13] = Additive Mono-rhamnolipid R1, 4% in water

- Mean Lactam Level in Solution [1, 3]: 2.7 ppm
- Solubility Increase vs water alone [1, 3]: 1.0
- Mean Lactam Level in Solution [1, 4]: 15.2 ppm
- Solubility Increase vs water alone [1, 4]: 5.7
- Mean Lactam Level in Solution [1, 5]: 42.6 ppm
- Solubility Increase vs water alone [1, 5]: 15.9
- Mean Lactam Level in Solution [1, 6]: 77.5 ppm
- Solubility Increase vs water alone [1, 6]: 28.9
- Mean Lactam Level in Solution [1, 7]: 139.6 ppm
- Solubility Increase vs water alone [1, 7]: 52.1
- Mean Lactam Level in Solution [1, 8]: 2.7 ppm
- Solubility Increase vs water alone [1, 8]: 1.0
- Mean Lactam Level in Solution [1, 9]: 10.9 ppm
- Solubility Increase vs water alone [1, 9]: 4.1
- Mean Lactam Level in Solution [1, 10]: 39.3 ppm
- Solubility Increase vs water alone [1, 10]: 14.7
- Mean Lactam Level in Solution [1, 11]: 75.3 ppm
- Solubility Increase vs water alone [1, 11]: 28.1
- Mean Lactam Level in Solution [1, 12]: 149.7 ppm
- Solubility Increase vs water alone [1, 12]: 55.9
- Mean Lactam Level in Solution [1, 13]: 194.8 ppm
- Solubility Increase vs water alone [1, 13]: 72.7
Compound: C=C1NC(=O)C=C1c1ccc(Cl)cc1 [4-(4-chlorophenyl)-5-methylene-pyrrol-2-one]

Compound: Phosphatidylethanolamine
- CMC [2]: 30 mg/L
- interfacial tension between water and hexadecane [2]: less than 1 mN m^−1
